# Key:
# Type in all cases: cell-based
# [1] = tested on: human hepatoma cell HepG2; assay: In vitro human hepatoma cell HepG2 inhibitory activity (MTT); details: HepG2, 48 h
# Text: (§1) According to the progress in the studies on anticancer drugs using IMPDH as a target, the present invention measured inhibitory activities of the compounds of present invention against human hepatoma cell HepG2 and human lung adenocarcinoma cell A549, respectively, the measured results are shown in Table 5:
# In Vitro Human Hepatoma Cell HepG2 Inhibitory Activity Measurement
# Collect well growing tumor cells, prepare 6×10^4/ml cell suspension in RPMI-1640 or DMEM culture medium containing 10% FBS, seed in 96-well plates, 100 μl suspension each well, incubate at 37° C. under 5% CO2 atmosphere for 24 h, add the test solution (final concentration of drug: 0.625, 1.25, 2.5, 5.0, 10 μg/ml), for each concentration set three parallel holes, set positive control (cisplatin 10, 1, 0.1 μg/ml) and a blank control simultaneously. After culture for 48 h discard the supernatants, add into each well 10 μl MTT solution (5 mg/ml, prepared with RPMI-1640 medium), continue culturing for 4 It, add into each hole 100 μl acidified isopropanol cell lysate, culture overnight, measure absorbance (A) values with Bio-Tek MQX200 type microplate reader with the detection wavelength at 540 nm, and reference wavelength 450 nm. Calculate the inhibition rate as follows: inhibition rate=(Ablank−Asample)/Ablank control×100%. Use Graphpad Prism 5 statistical software to calculate IC50.
# [2] = tested on: human lung adenocarcinoma cell A549; assay: In vitro human lung adenocarcinoma cell A549 inhibitory activity (MTT); details: A549, 48 h
# Text: as §1
# In Vitro Human Lung Adenocarcinoma Cell A549 Inhibitory Activity Measurement
# Cell lines: human lung adenocarcinoma cell A549. Collect well growing tumor cells, prepare cell suspension with Ham's F12 culture solution containing 10% fetal calf serum medium, seed the suspension in 96-well plates, each well 100 μl suspension at 5000 cells/well, incubate at 37° C., under 5% CO2 atmosphere, 24 h later, add 2×drug solution […], each concentration in three parallel holes, set the blank control simultaneously. After culture for 48 h, add 20 μl (5 mg/ml) MTT to each well, culture 4 h, discard the supernatants. Measure absorbance (A) values using Bio-Rad 680 microplate reader at a detection wavelength of 570 nm, the survival rate (%) is calculated as follows: AsampleAblank control×100%. Use statistical software Graphpad Prism5 to calculate IC50. After primary screening of all samples, adjust the concentration gradient of the samples with IC50<100 μg/ml to do additional screenings, which are carried out with two parallel determinations.
# [3] = tested on: Coxsackie virus type B3 (COX-B3); assay: Anti-Coxsackie virus type B3 (COX-B3) activity, CPE in Vero cells; details: Reed-Muench
# Procedure: (§2) With Vero (African green monkey kidney) cells as viral hosts, inhibitory effects of the compounds of present invention on the grades of pathological lesions by coxsackievirus B3 (COX-B3), B6 (COX-B6) viruses in Vero cells were determined. The measured results of viral inhibitory activity of the compounds are shown in Table 3 and Table 4; wherein RBV is the control drug ribavirin. The inhibitory activities of the measured compounds against coxsackievirus B3, B6 were stronger than the control.
# (§3) Screening of Anti-B3, B6 Type Coxsackie Viruses (COX-B3, COX-B6) Activity of the Samples
# (§4) Prepare stock solutions of COX-B3 (or COX-B6) virus strains as well as tested compounds in DMSO before use. Before tests, dilute the stock solution with culture solution into a certain concentration and then dilute 3 times to make a total of eight dilutions. Use ribavirin (RBV) as positive control. Test procedures are as follows: seed Vero cells into 96-well culture plates, infect with 10^−5 Coxsackie virus of B3 (or B6) type, 24 hours later; adsorb subsequently for 2 hours, then discard the virus solution, add in the sample compounds and the positive control according to the abovementioned dilutions, set cell control wells and virus control wells simultaneously. When the cytopathic effect (CPE) of cells in the virus control wells reach 4+, observe CPE of the cells in each group. Use Reed-Muench method to calculate 50% inhibitory concentration (IC50) of the sample compounds against coxsackie virus B3 (or B6) type.
# [4] = tested on: Coxsackie virus type B6 (COX-B6); assay: Anti-Coxsackie virus type B6 (COX-B6) activity, CPE in Vero cells; details: Reed-Muench
# Procedure: as §2, §3, §4
Compound,IC50 [3] [µg/mL],other results
"N.N.[Cl][Pt][Cl] [Cisplatin, reference compound]",–,HepG2 IC50 [1]: 104.1 µg/mL; A549 IC50 [2]: 263.4 µg/mL
"COc1cc(/N=C/c2cccs2)ccc1-c1cnco1 [Compound 9, N-(thien-2-ylmethylene)-3-methoxy-4-(oxazol-5-yl) aniline]",12.8,IC50 [4]: 12.8 µg/mL
"COc1ccc2[nH]cc(CNc3ccc(-c4cnco4)c(OC)c3)c2c1 [Compound 52, N-(5-methoxy-1H-indol-3-ylmethyl)-3-methoxy-4-(oxazol-5-yl) aniline]",3.25,IC50 [4]: > 2.47 µg/mL
"COc1cc(NCc2cccnc2Cl)ccc1-c1cnco1 [Compound 59, N-(2-chloropyridin-3-ylmethyl)-3-methoxy-4-(oxazol-5-yl) aniline]",1.9,IC50 [4]: 1.05 µg/mL
"COc1ccc(CNc2ccc(-c3cnco3)c(OC)c2)cn1 [Compound 60, N-(6-methoxy-pyridin-3-ylmethyl)-3-methoxy-4-(oxazol-5-yl) aniline]",0.57,IC50 [4]: 3.15 µg/mL
"COc1cc(/N=C/c2ccc(F)cc2)ccc1-c1cnco1 [Compound 64, N-(4-Fluorophenylmethylidene)-3-methoxy-4-(oxazol-5-yl)-aniline]",4.28,IC50 [4]: 17.2 µg/mL
COc1cc(NN=C(C#N)C#N)ccc1-c1cnco1 [Compound 66],1.43,IC50 [4]: 4.28 µg/mL
COc1cc(NS(C)(=O)=O)ccc1-c1cnco1 [Compound 68],1.53,IC50 [4]: 7.41 µg/mL
"COc1cc(NC/C=C(/C)CCC=C(C)C)ccc1-c1cnco1 [Compound 71, N-(3,7-dimethyl-octa-2,6-dienyl)-3-methoxy-4-(oxazol-5-yl) aniline]",1.25,IC50 [4]: > 0.82 µg/mL
"COc1cc(N(CCc2cc3ccccc3s2)C(=O)C(C)Br)ccc1-c1cnco1 (centres unmarked) [Compound 80, N-(2-benzothien-2-yl-ethyl)-N-(3-methoxy-4-oxazol-5-yl)-2-bromopropionamide]",0.24,–
"COc1cc(NCCc2nnc3ccccc3c2Cl)ccc1-c1cnco1 [Compound 81, N-[2-(4-chlorocinnolin-3-yl)-ethyl]-3-methoxy-4-(oxazol-5-yl) aniline]",0.29,–
"COc1cc(NCCc2cc3cc(Cl)ccc3s2)ccc1-c1cnco1 [Compound 82, N-[2-(5-chlorobenzathien-2-yl)-ethyl]-3-methoxy-4-(oxazol-5-yl) aniline]",0.33,–
"COc1cc(NCC2=C(Cl)c3cc(Cl)ccc3SC2)ccc1-c1cnco1 [Compound 83, N-(4,6-dichloro-2H-sulfurbenzopyran-3-ylmethyl)-3-methoxy-4-(oxazol-5-yl) aniline]",0.42,–
"COc1cc(CN(Cc2cc3cc(C)ccc3s2)S(C)(=O)=O)ccc1-c1cnco1 [Compound 84, N-(3-methoxy-4-oxazol-5-yl-benzyl)-N-(5-methyl-benzothien-2-ylmethyl)-methylsulfonamide]",0.34,–
"COc1cc(CNCc2csc3ccccc23)ccc1-c1cnco1 [Compound 85, N-(benzothien-3-ylmethyl)-3-methoxy-4-(oxazol-5-yl) benzylamine]",0.44,–
"COc1cc(CNCc2ccc3c(cnn3C)c2)ccc1-c1cnco1 [Compound 86, N-(1-methyl-1H-indazole-5-methyl)-3-methoxy-4-(oxazol-5-yl) benzylamine]",0.34,–
"COc1cc(CN(C)Cc2csc3ccc(Cl)cc23)ccc1-c1cnco1 [Compound 87, N-methyl-N-(5-chlorobenzothien-3-ylmethyl)-3-methoxy-4-(oxazol-5-yl) benzylamine]",0.35,–
"COc1cc(NCc2ccc3c(c2)Sc2ccccc2N3C)ccc1-c1cnco1 [Compound 88, N-(10-methyl-10H-phenothiazin-3-ylmethyl)-3-methoxy-4-oxazol-5-yl aniline]",0.36,–
"Cc1ccc(CNCc2ccc(-c3cnco3)c(Cl)c2)s1 [Compound 89, N-(5-methylthien-2-ylmethyl)-3-chloride-4-oxazol-5-yl benzylamine]",0.26,–

Compound,IC50 [3] [µg/mL],other results
"Clc1cc(NCc2cccc3c2sc2ccccc23)ccc1-c1cnco1 [Compound 90, N-dibenzothien-4-ylmethyl-3-chloro-4-oxazol-5-yl aniline]",0.26,–
"Clc1cc(CNCc2cccc3nsnc23)ccc1-c1cnco1 [Compound 91, N-(benzo[1,2,5]-thiadiazol-4-ylmethyl)-3-chloro-4-oxazol-5-yl benzylamine]",0.28,–
"COc1cc(NCC2=COc3ccc(O)cc3C2)ccc1-c1cnco1 [Compound 92, 3-(3-methoxy-4-oxazol-5-ylanilino) methyl-4-H-benzopyran-6-ol]",0.63,–
"COc1cc(CNCc2ccc(Br)o2)ccc1-c1cnco1 [Compound 93, N-(5-bromofuran-2-ylmethyl)-3-methoxy-4-(oxazol-5-yl) benzylamine]",0.88,–
"COc1cc(NCc2c3ccccc3nc3ccc(C)cc23)ccc1-c1cnco1 [Compound 94, N-(2-methylacridine-9-methyl)-3-methoxy-4-(oxazol-5-yl) aniline]",0.68,–
"COc1cc(NCc2c3ccccc3cc3ccccc23)ccc1-c1cnco1 [Compound 95, N-(anthracen-9-ylmethyl) 3-methoxy-4-(oxazol-5-yl) aniline]",0.55,–
COc1cc(NCc2ccc(CO)o2)ccc1-c1cnco1 [Compound 96],1.43,–
"CCc1sc(CNc2ccc(-c3cnco3)c(OC)c2)cc1Br [Compound 97, N-(4-bromo-5-ethylthien-2-ylmethyl) 3-methoxy-4-(oxazol-5-yl) aniline]",0.23,–
"COc1cc(NS(=O)(=O)c2cccs2)ccc1-c1cnco1 [Compound 98, N-(thien-2-ylsulfonyl)-3-methoxy-4-oxazole-5-yl aniline]",0.88,–
"COc1cc(NS(=O)(=O)c2cc([N+](=O)[O-])c(Cl)s2)ccc1-c1cnco1 [Compound 99, N-(5-chloro-4-nitro-thien-2-ylsulfonyl)-3-methoxy-4-oxazole-5-yl aniline]",0.78,–
"COc1cc(NCc2ccc3c(c2)CCO3)ccc1-c1cnco1 [Compound 100, N-(2,3-dihydobenzofuro-5-ylmethyl)-3-methoxy-4-(oxazol-5-yl) aniline]",0.46,–
"COc1cc(NCc2ccc(C(C)=O)s2)ccc1-c1cnco1 [Compound 101, N-(5-acetylthien-2-ylmethyl)-3-methoxy-4-oxazole-5-yl aniline]",0.48,–
"COc1cc(NCc2ccc(SC)s2)ccc1-c1cnco1 [Compound 102, N-(5-methylthiothien-2-ylmethyl)-3-methoxy-4-(oxazol-5-yl) aniline]",0.35,–
COc1cc(NCc2ccc(N3CCC(O)CC3)s2)ccc1-c1cnco1 [Compound 103],0.4,–
"COc1cc(NCc2ccc(-c3ccc(C(F)(F)F)cc3Cl)o2)ccc1-c1cnco1 [Compound 104, N-[5-(2-chloro-4-trifluoromethylphenyl)furan-2-ylmethyl]-3-methoxy-4-oxazol-5-yl aniline]",0.45,–
"COc1cc(NC/C=C/c2ccoc2)ccc1-c1cnco1 [Compound 105, N-(furan-3-ylpropen-1-yl)-3-methoxy-4-oxazol-5-yl aniline]",1.23,–
"COc1cc(NCc2ccc3sccc3c2)ccc1-c1cnco1 [Compound 106, N-(benzothien-5-ylmethyl)-3-methoxy-4-oxazol-5-yl aniline]",0.44,–
"NC(=O)c1ncn([C@@H]2O[C@H](CO)[C@@H](O)[C@H]2O)n1 [RBV, ribavirin, reference compound]",222,IC50 [4]: 222 µg/mL
